Where a name gives a salt, the structure may show the parent alone.
Test system: mice
Assay: Neuropharmacological Assay (SmartCube): automated behavioral signature of compound-treated mice compared with a database of reference drug classes
Format: in vivo
Conditions: for minimal effective dose: Mus musculus, ip, read-out: MED; for minimal effective dose / MED: minimal effective dose: dose having 45% or more total activity in SmartCube, i.p., if only one dose tested, that dose is shown; for AD / AG / AN / AX / CE / MS / PS / SH / UK / AP / HL: SmartCube class probability, 3.0 mg/kg i.p., 15 min before test
Outline: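 i.p. dosing 15 min pre-test (NMP/PEG/propylene glycol vehicle); 3 doses, 3.0 mg/kg reported. Output = class-match probability per behavioural effect. Potency runs 0.3, 1, 3, 10 mpk (range adjusted as needed); MED = dose with ≥45% total activity.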

Row | Structure (SMILES) | minimal effective dose [mg/kg] | AD | AG | AN | AX | CE | MS | PS | SH | AP (hydrochloride, 3 mg/kg) | MED [mpk] | HL | UK (hydrochloride, 3 mg/kg) | AP | AD (hydrochloride, 3 mg/kg) | other results
1 | CNC1CCc2c(Cl)csc2C1 (single isomer, unassigned) [Compound 198, 3-chloro-N-methyl-4,5,6,7-tetrahydrobenzothiophen-6-amine hydrochloride] | < 3 | ND (^ <4%) | ND (^ <4%) | ND (^ <4%) | ND (^ <4%) | ND (^ <4%) | ND (^ <4%) | ND (^ <4%) | ND (^ <4%) | ++++ (≥74%) |  |  |  |  |  | UK: ND (^ <4%); HL (hydrochloride, 3 mg/kg): ND (^ <4%)
2 | CNC1CCc2c(Cl)csc2C1 (single isomer, unassigned) [Compound 199, 3-chloro-N-methyl-4,5,6,7-tetrahydrobenzothiophen-6-amine hydrochloride] |  | ND (^ <4%) | ND (^ <4%) | ND (^ <4%) | ND (^ <4%) | ND (^ <4%) | ND (^ <4%) | ND (^ <4%) | ND (^ <4%) | ND (^ <4%) | <3 |  |  |  |  | UK: ND (^ <4%); HL (hydrochloride, 3 mg/kg): + (≥4%)
3 | CNC1CCc2c(F)sc(C)c2C1 (single isomer, unassigned) [Compound 210, 1-fluoro-N, 3-dimethyl-4,5,6,7-tetrahydro-2-benzothiophen-5-amine hydrochloride] | 3 | ND (^ <4%) | ND (^ <4%) | ND (^ <4%) | ND (^ <4%) | ND (^ <4%) | ND (^ <4%) | ND (^ <4%) | ND (^ <4%) | + (≥4%) |  | ND (^ <4%) | +++ (≥49%) |  |  | 
4 | CNC1CCc2c(F)sc(C)c2C1 (single isomer, unassigned) [Compound 211, 1-fluoro-N, 3-dimethyl-4,5,6,7-tetrahydro-2-benzothiophen-5-amine hydrochloride] |  | ND (^ <4%) | ND (^ <4%) | ND (^ <4%) | ND (^ <4%) | ND (^ <4%) | ND (^ <4%) | ND (^ <4%) | ND (^ <4%) | ++++ (≥74%) |  | ND (^ <4%) | ND (^ <4%) |  |  | MED (hydrochloride): <3 mpk
5 | NC1CCc2sccc2C1 (single isomer, unassigned) [Compound 212, 4,5,6,7-tetrahydrobenzothiophen-5-amine hydrochloride] | 1 |  | ND (^ <4%) | ND (^ <4%) |  |  | ND (^ <4%) | ND (^ <4%) |  |  |  | ND (^ <4%) |  | + (≥4%) | +++ (≥49%) | UK: ND (^ <4%); AX (hydrochloride, 3 mg/kg): + (≥4%); CE (hydrochloride, 3 mg/kg): + (≥4%); SH (hydrochloride, 3 mg/kg): ND (^ <4%)
6 | NC1CCc2sccc2C1 (single isomer, unassigned) [Compound 213, 4,5,6,7-tetrahydrobenzothiophen-5-amine hydrochloride] |  |  | ND (^ <4%) | ND (^ <4%) |  |  | ND (^ <4%) | ND (^ <4%) |  |  | 1 | ND (^ <4%) |  | + (≥4%) | + (≥4%) | UK: ND (^ <4%); AX (hydrochloride, 3 mg/kg): +++ (≥49%); CE (hydrochloride, 3 mg/kg): ND (^ <4%); SH (hydrochloride, 3 mg/kg): + (≥4%)
7 | CNC1CCc2sc(C)cc2C1 (single isomer, unassigned) [Compound 223, N, 2-dimethyl-4,5,6,7-tetrahydrobenzothiophen-5-amine hydrochloride] | > 3 | ND (^ <4%) | ND (^ <4%) | ND (^ <4%) | ND (^ <4%) | ND (^ <4%) | ND (^ <4%) | ND (^ <4%) | ND (^ <4%) | ND (^ <4%) |  | ND (^ <4%) | ++ (≥24%) |  |  | 
8 | CNC1CCc2sc(C)cc2C1 (single isomer, unassigned) [Compound 224, N, 2-dimethyl-4,5,6,7-tetrahydrobenzothiophen-5-amine hydrochloride] |  | ND (^ <4%) | ND (^ <4%) | ND (^ <4%) | ND (^ <4%) | ND (^ <4%) | ND (^ <4%) | ND (^ <4%) | ND (^ <4%) | ++++ (≥74%) |  | ND (^ <4%) | ND (^ <4%) |  |  | MED (hydrochloride): 3 mpk
9 | CNC1CCc2c(C(F)(F)F)csc2C1 (single isomer, unassigned) [Compound 230, N-methyl-3-(trifluoromethyl)-4,5,6,7-tetrahydrobenzothiophen-6-amine hydrochloride] | 3 |  | ND (^ <4%) | ND (^ <4%) | ND (^ <4%) | ND (^ <4%) | ND (^ <4%) | ND (^ <4%) | ND (^ <4%) |  |  | ND (^ <4%) | ND (^ <4%) | ND (^ <4%) | + (≥4%) | 
10 | CNC1CCc2c(C(F)(F)F)csc2C1 (single isomer, unassigned) [Compound 231, N-methyl-3-(trifluoromethyl)-4,5,6,7-tetrahydrobenzothiophen-6-amine hydrochloride] |  |  | ND (^ <4%) | ND (^ <4%) | ND (^ <4%) | ND (^ <4%) | ND (^ <4%) | ND (^ <4%) | ND (^ <4%) |  | 3 | ND (^ <4%) | +++ (≥49%) | ND (^ <4%) | ND (^ <4%) | 
11 | CNC1CCc2scc(-c3ccccc3)c2C1 (single isomer, unassigned) [Compound 232, N-methyl-3-phenyl-4,5,6,7-tetrahydrobenzothiophen-5-amine hydrochloride] | > 3 | ND (^ <4%) | ND (^ <4%) | ND (^ <4%) | ND (^ <4%) | ND (^ <4%) | ND (^ <4%) | ND (^ <4%) | ND (^ <4%) |  |  | ND (^ <4%) | + (≥4%) | ND (^ <4%) |  | 
12 | CNC1CCc2scc(-c3ccccc3)c2C1 (single isomer, unassigned) [Compound 233, N-methyl-3-phenyl-4,5,6,7-tetrahydrobenzothiophen-5-amine hydrochloride] |  | ND (^ <4%) | ND (^ <4%) | ND (^ <4%) | ND (^ <4%) | ND (^ <4%) | ND (^ <4%) | ND (^ <4%) | ND (^ <4%) |  | >3 | ND (^ <4%) | ND (^ <4%) | ND (^ <4%) |  | 
13 | CNC1CCc2scc(CN)c2C1 (single isomer, unassigned) [Compound 236, 3-(aminomethyl)-N-methyl-4,5,6,7-tetrahydrobenzothiophen-5-amine dihydrochloride] | > 3 | ND (^ <4%) | ND (^ <4%) | ND (^ <4%) | ND (^ <4%) | ND (^ <4%) | ND (^ <4%) | ND (^ <4%) | ND (^ <4%) |  |  | ND (^ <4%) |  | ND (^ <4%) |  | UK (dihydrochloride, 3 mg/kg): ND (^ <4%)
14 | CNC1CCc2scc(CN)c2C1 (single isomer, unassigned) [Compound 237, 3-(aminomethyl)-N-methyl-4,5,6,7-tetrahydrobenzothiophen-5-amine dihydrochloride] |  | ND (^ <4%) | ND (^ <4%) | ND (^ <4%) | ND (^ <4%) | ND (^ <4%) | ND (^ <4%) | ND (^ <4%) | ND (^ <4%) |  | >3 | ND (^ <4%) |  | ND (^ <4%) |  | UK (dihydrochloride, 3 mg/kg): + (≥4%)
15 | CC1(N)CCc2c(C(F)(F)F)csc2C1.Cl (single isomer, unassigned) [Compound 241, 6-methyl-3-(trifluoromethyl)-5,7-dihydro-4H-benzothiophen-6-amine hydrochloride] | 3 |  | ND (^ <4%) | ND (^ <4%) | ND (^ <4%) | ND (^ <4%) | ND (^ <4%) | ND (^ <4%) | ND (^ <4%) |  |  | ND (^ <4%) | ++++ (≥74%) | ND (^ <4%) | + (≥4%) | 
16 | CC1(N)CCc2c(C(F)(F)F)csc2C1.Cl (single isomer, unassigned) [Compound 242, 6-methyl-3-(trifluoromethyl)-5,7-dihydro-4H-benzothiophen-6-amine hydrochloride] |  |  | ND (^ <4%) | ND (^ <4%) | ND (^ <4%) | ND (^ <4%) | ND (^ <4%) | ND (^ <4%) | ND (^ <4%) |  | 3 | ND (^ <4%) | ND (^ <4%) | ND (^ <4%) | +++ (≥49%) | 

From patent publication US20260274814A1, “THIENYL COMPOUNDS FOR THE TREATMENT OF A CENTRAL NERVOUS SYSTEM DISEASE OR DISORDER” (Coreterra Therapeutics, Inc., priority 2023, published 2026)
